Earlier results on four compounds are cited in patent US11596693B2, “Antibody-drug conjugates and uses thereof” (priority 2019, dated 2023).

Square brackets hold non-standard residues; d marks the D form. Peptide text beside a SMILES is read from it. * marks the point of attachment. Dolaproine = CO[C@@H]([C@@H]1CCCN1)[C@@H](C)C(=O)O; Dil = CC[C@H](C)[C@H](NC)[C@@H](CC(=O)O)OC; X1 = C[C@@H](N*)[C@@H](O)c1ccccc1; NMeV = CN[C@H](C(=O)O)C(C)C

For one data set, the system named is many cells. As to conditions: for many cells.
For data set [1], the system named is human-derived cancer cell lines. As to conditions: read-out: median inhibitory concentration.

For `COc1cc2cc(c1Cl)N(C)C(=O)CC(OC(=O)[C@H](C)N(C)C(=O)CCC(C)(C)S)C1(C)OC1C(C)C1CC(O)(NC(=O)O1)C(OC)/C=C/C=C(\C)C2` (stereo partly shown) [DM4], the IC50 in the data set with many cells is ~0.001 nM.

Turning to `CC[C@H](C)[C@@H]([C@@H](CC(=O)N1CCC[C@H]1[C@H](OC)[C@@H](C)C(=O)N[C@H](C)[C@@H](O)c1ccccc1)OC)N(C)C(=O)[C@@H](NC(=O)[C@@H](NC)C(C)C)C(C)C` [MMAE, Monomethyl auristatin E] (H-[NMeV]V[Dil][Dolaproine]-X1), in the data set with many cells, the IC50 is 0.01 to 1 nM. For the compound `COc1cc2cc(c1Cl)N(C)C(=O)CC(OC(=O)[C@H](C)N(C)C(=O)CCS)C1(C)OC1C(C)C1CC(O)(NC(=O)O1)C(OC)/C=C/C=C(\C)C2` (stereo partly shown) [DM1], the IC50 in the data set with many cells is ~0.01 nM.

Turning to `COc1cccc2c1C(=O)c1c(O)c3c(c(O)c1C2=O)C[C@@](O)(C(=O)CO)C[C@@H]3O[C@H]1C[C@H](N)[C@H](O)[C@H](C)O1` [doxorubicins, Doxorubicin], the IC50 in data set [1] is 100 to 200 nM.
